Measurements from patent publication US20080194636A1, “Enzyme Inhibitors and Uses Thereof” (Howard Florey Institute Of Experimental Physiology And …, priority 2004, published 2008).

How the values were obtained:
[1] = target: T1, insulin-regulated aminopeptidase (IRAP) (Homo sapiens, UniProt Q9UIQ6); experiment: In vitro enzymatic assay for inhibitors of IRAP (hydrolysis of Leu-MCA, fluorescence); type: biochemical; conditions: recombinant full length human IRAP from transfected HEK293 cells; substrate Leu-MCA
T1 construct: containing the cDNA encoding the full length human RAP were utilised; made in house; host or cells: HEK293 cells transfected with pcDNA-3
T1 sequence (Q9UIQ6 whole entry): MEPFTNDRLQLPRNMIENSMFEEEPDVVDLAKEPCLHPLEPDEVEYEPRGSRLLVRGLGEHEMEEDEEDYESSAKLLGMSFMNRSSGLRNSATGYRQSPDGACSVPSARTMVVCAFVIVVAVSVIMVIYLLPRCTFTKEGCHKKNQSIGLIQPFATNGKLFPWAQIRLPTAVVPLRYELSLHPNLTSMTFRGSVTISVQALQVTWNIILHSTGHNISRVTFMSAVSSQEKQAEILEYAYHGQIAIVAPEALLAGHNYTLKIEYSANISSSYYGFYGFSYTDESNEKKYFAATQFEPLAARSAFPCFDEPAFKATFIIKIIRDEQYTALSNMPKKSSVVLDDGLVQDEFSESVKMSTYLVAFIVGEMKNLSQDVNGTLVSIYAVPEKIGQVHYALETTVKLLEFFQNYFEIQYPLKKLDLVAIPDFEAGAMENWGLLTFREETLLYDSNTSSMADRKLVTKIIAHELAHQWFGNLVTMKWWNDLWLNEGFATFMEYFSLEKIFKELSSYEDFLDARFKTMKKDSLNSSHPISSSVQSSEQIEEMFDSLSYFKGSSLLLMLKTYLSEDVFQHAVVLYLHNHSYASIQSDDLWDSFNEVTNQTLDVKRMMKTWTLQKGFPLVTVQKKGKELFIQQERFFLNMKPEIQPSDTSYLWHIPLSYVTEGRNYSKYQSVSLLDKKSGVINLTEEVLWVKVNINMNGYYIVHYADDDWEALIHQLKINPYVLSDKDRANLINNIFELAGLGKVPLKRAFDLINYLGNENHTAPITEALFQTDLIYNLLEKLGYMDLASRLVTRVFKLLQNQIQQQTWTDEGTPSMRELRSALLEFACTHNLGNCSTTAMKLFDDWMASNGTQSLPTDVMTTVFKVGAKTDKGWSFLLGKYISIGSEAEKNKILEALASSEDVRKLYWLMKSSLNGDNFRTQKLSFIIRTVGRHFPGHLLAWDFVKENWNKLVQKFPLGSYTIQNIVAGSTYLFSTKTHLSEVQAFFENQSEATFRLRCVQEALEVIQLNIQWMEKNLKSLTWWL
Experimental: An in vitro enzymatic assay was used for screening for compounds which inhibit IRAP activity. The assay used an aminopeptidase substrate (leucine 4-methylcoumaryl-7-amide), a source of IRAP-containing material, and a candidate inhibitor.
IRAP-containing material was incubated with a synthetic aminopeptidase substrate, such as Leu-MCA (leucine 4-methylcoumaryl-7-amide), and a test substance. Inhibition of the rate of degradation of the synthetic substrate was taken as a measure of the inhibitory effect of the test substance.
As a source of recombinant IRAP, HEK293 cells transfected with a eukaryotic expression vector pcDNA-3 containing the cDNA encoding the full length human RAP were utilised. The assay system involved the measurement of the rate of hydrolysis of Leu-MCA by RAP. […] Candidate test compounds were added to the assay system, and their effects on the hydrolysis of Leu-MCA were taken to be direct indicators of their ability to inhibit IRAP activity.

[2] = test system: scopolamine-induced memory deficit; experiment: Scopolamine-induced memory deficit model, inhibitory avoidance paradigm; type: in vivo, rat; conditions: rats, following scopolamine, retrieval trial 24 h later, vs scopolamine followed by vehicle
Experimental: The effect of IRAP inhibitor Compound 1 on scopolamine-induced amnesia was tested in the inhibitory avoidance paradigm.
The inhibitory avoidance box is made up of two chambers, a smaller light compartment and a larger darken compartment and the test comprises of two trials. The first training trial involves placing the rat in the light compartment facing the wall and as soon as it runs to the end of the dark compartment and turns around, an electric shock of 0.6 mA is administered for 2 s and the animal is left in the dark compartment for a total of 15 s before being returned to its home cage. After a 24 h interval, the animal is then tested again and the latency in entering the dark chamber is a measure of the ability of the animal to remember the aversive stimulus. To test for the effect of the IRAP inhibitors, the rats were implanted with a chronic indwelling cannula into the lateral ventricles 1 week before the behavioural experiments. On the day of the testing, 15 min before the training trial, the rats were injected with either […] scopolamine hydrobromide dissolved in 2 ul of 0.9% saline or 0.9% saline before being placed in the inhibitory avoidance box for the training trial. Immediately after the training trial, the rats were injected with either 0.2 or 2 nmol of compound 1 (from Example 1) dissolved in 2 ul of 10% DMSO or vehicle control. […]

3T3-L1 cells = conditions: 0.1 and 1 uM; basal and insulin (0.7 nM) stimulated; cited from earlier work

Row | IC50 [1] | SMILES | latency in entering the dark chamber ([2]; 0.2 nmol icv immediately after training trial) | latency in entering the dark chamber ([2]; 2 nmol icv immediately after training trial) | glucose uptake (3T3-L1 cells)
1 | 45 µM | COc1ccc(C2C(C#N)=C(N)Oc3cc(O)ccc32)cc1OC (stereo not shown) [Compound 3] | – | – | –
2 | 4 µM | CCOC(=O)C1=C(N)Oc2cc(O)ccc2C1c1cccnc1 (stereo not shown) [Compound 1] | increased latencies | increased latencies | –
3 | 42 µM | CCOC(=O)C1=C(N)Oc2cc(O)ccc2C1c1cccc(Cl)c1 (stereo not shown) [Compound 2] | – | – | –
4 | – | CC[C@H](C)[C@H](NC(=O)[C@H](Cc1ccc(O)cc1)NC(=O)[C@@H](N)C(C)C)C(=O)N[C@@H](Cc1cnc[nH]1)C(=O)N1CCC[C@H]1C(=O)N[C@@H](Cc1ccccc1)C(=O)O [Ang IV] | – | – | enhance
5 | 80 µM | COc1ccc(C2C(C#N)=C(N)Oc3cc(O)ccc32)cc1 (stereo not shown) [Compound 9] | – | – | –
